# Assay results reported in paper PMC7993833, “EDP-938, a novel nucleoprotein inhibitor of respiratory syncytial virus, demonstrates potent antiviral activities in vitro and in a non-human primate model” (PLoS Pathogens, 2021).
# How the values were obtained:
# RSV-A M37 [1] = assay: RT-qPCR assay, RSV-A M37 in primary HBECs; format: cell-based; conditions: human respiratory syncytial virus, primary HBEC
# RSV-A2 = assay: CPE assay, RSV-A2 in Vero cells; format: cell-based; conditions: human respiratory syncytial virus
# Experimental: (§1) HEp-2, Vero, and BHK were seeded at 8,000 cells per well (cpw) in growth medium (Dulbecco’s Modified Eagle Medium (DMEM) with 1% GlutaMAX, 1% Penicillin/Streptomycin (P/S), 1% Non-Essential Amino Acids (NEAA), 10% Fetal Bovine Serum (FBS)) or (Minimum Essential Medium (MEM) with 10% FBS, 1% NEAA, 1% P/S) or (Eagle’s Minimum Essential Medium with L-Glutamine, with 10% FBS, 1% P/S) respectively. A549 seeded at 3,000 cpw in F-12K Kaighn’s Modification nutrient mixture with 10% FBS, 1% NEAA, 1% P/S. Cells seeded at time of infection in 96-well plates, final well volume 100μL. Compounds suspended in DMSO, serially diluted and added to wells at 0.5% final DMSO concentration. Viral stocks stabilized with 25% sucrose, previously titered using plaque assay, were added at desired MOI. Sucrose added to cells-only control wells to match percent added with virus. Unless otherwise noted, RSV-A strains were tested at 0.1 MOI and incubated for 5 days in a 37°C, 5% CO2 humidified incubator, and RSV-B at 0.5 MOI for 6 days. Cytopathic effect (CPE) determined using ATPlite (Perkin Elmer) measured with Envision luminometer. For RT-qPCR, RNA was extracted from whole well using Ambion RNAqueous-96 Automated Kit, and RT-qPCR run using Applied Biosystems TaqMan RNA-to-CT 1-Step Kit. […] All EC50s were calculated using the XLFit four-parameter logistic model 200 in Microsoft Excel.
# RSV-A M37 [2] = assay: CPE assay, RSV-A M37 in HEp-2 cells; format: cell-based; conditions: human respiratory syncytial virus
# Experimental: as §1
# A549 cells = assay: Cytotoxicity (ATPlite) in A549 cells; format: cell-based, human; conditions: at up to 50 μM, 3 days
# Experimental: HEp-2, A549, and CHO cells were seeded at 3,000 cpw in their respective growth medium. CHO growth medium used was RPMI medium 1640 with 10% FBS, 1% P/S, 1% GlutaMAX. HEK-293 cells seeded at 10,000 cpw in DMEM growth medium. Undifferentiated HBECs were seeded in collagen-coated 96-well plates at 7,500 cpw in appropriate growth medium. Compound added and incubated for 3 days (4 days for HBECs) as described above. Plates read with ATPlite and CC50 calculated as EC50s as described above. SI = CC50/EC50 within a cell line.
# RSV-A Long = assay: CPE assay (ATPlite), RSV-A Long in HEp-2 cells; format: cell-based; conditions: human respiratory syncytial virus, 120 h, HEp-2, RSV-A Long MOI 0.1, 5 days
# [3] = tested on: GS-5806- and AZ-27-resistant RSV; assay: Activity against GS-5806- and AZ-27-selected resistant viruses; format: cell-based, respiratory syncytial virus; conditions: GS-5806- and AZ-27-resistant viruses
# [4] = Plasma drug exposure in African Green monkey study; format: in vivo, African Green monkeys (Chlorocebus); conditions: both sexes, plasma, 100 mg/kg BID oral, read-out: mean plasma Ctrough
# Source text: The African green monkey model was selected for EDP-938 in vivo studies for its higher level of viral replication versus cotton rats and BALB/c mice. […] In this previous trial, patients who achieved RSV-604 levels in excess of the EC90 experienced a 2.31 log reduction in viral load. […] The lack of antiviral activity observed with RSV-604 could be a function of relatively poor potency compared to EDP-938 (Fig 1) and/or insufficient tissue exposure. While in this study the animals were not sacrificed and thus the drug level in the lung could not be determined, plasma samples were taken at 12h after the last dose (Ctrough) to confirm drug exposure. […] It is reasonable to project that given the same dose or exposure EDP-938 should perform better than RSV-604 in RSV infected patients as well.
# A study of EDP-938 and RSV-604 in the African Green monkey (AGM) animal model was performed by BIOQUAL, Inc (Rockville, Maryland). Methods were similar to those run in a study by Ispas et al.. Six (6) male and 6 female AGMs (Chlorocebus) of 4–5 kg were purchased from PrimGen (Hines, Illinois). Each animal was challenged with 2 x 10^5 PFU of RSV A2 viral inoculum (Virapur, San Diego, CA). Four animals (2 per sex) in each group were treated with EDP-938, RSV-604, or vehicle control (0.5% w/v methylcellulose). […]
# [5] = tested on: recombinant RSV A2-line19F, N protein mutants; assay: microbe, parasite or virus in culture; conditions: human respiratory syncytial virus
# RSV A2 = assay: RSV-infected African Green monkey model, viral load; format: in vivo, African Green monkeys (Chlorocebus)
# Experimental: African Green monkeys (AGMs) are permissive for human RSV infection and support a relatively higher level of viral replication compared to cotton rats and BALB/c mice. It has been previously validated as a non-human primate model for assessing in vivo efficacy of potential RSV vaccines and antiviral drugs. To evaluate the activity of EDP-938 in the AGM model, 4 animals each were treated with 100 mg/kg BID with EDP-938, RSV-604, or vehicle control via oral gavage starting 24 hours prior to RSV challenge and continuing for an additional 5 days. Samples were collected through bronchoalveolar lavage (BAL) and nasopharyngeal (NP) swab at various time points to determine viral load. […] Viral load in the NP swab samples was also determined.
# A study of EDP-938 and RSV-604 in the African Green monkey (AGM) animal model was performed by BIOQUAL, Inc (Rockville, Maryland). Methods were similar to those run in a study by Ispas et al.. Six (6) male and 6 female AGMs (Chlorocebus) of 4–5 kg were purchased from PrimGen (Hines, Illinois). Each animal was challenged with 2 x 10^5 PFU of RSV A2 viral inoculum (Virapur, San Diego, CA). Four animals (2 per sex) in each group were treated with EDP-938, RSV-604, or vehicle control (0.5% w/v methylcellulose). The animals were dosed via oral gavage twice daily (every 12 hours), starting 24 hours prior to RSV challenge, and then continuing for an additional 5 days (6 total days of dose administration). Bronchoalveolar lavage (BAL) samples and nasopharyngeal (NP) swabs were collected for viral load determination.
compound,measurement,setting,value
O=C1Nc2ccccc2C(c2ccccc2)=N[C@@H]1Nc1nnc(-c2ncc(C(F)(F)F)cc2N2CCOCC2)o1 [EDP-938],EC50,"RSV-A M37 [1]; 144 h, RSV-A M37 MOI 0.1, 6 days",23 ± 14 nM
same,EC90,RSV-A M37 [1]; RSV-A M37,36 ± 17 nM
same,EC50,RSV-A2,33 ± 7 nM
same,EC90,RSV-A2,44 ± 18 nM
same,EC50,RSV-A M37 [2],28 ± 4 nM
same,EC90,RSV-A M37 [2],34 ± 10 nM
same,cytotoxicity,A549 cells,no significant cytotoxicity
same,EC90,RSV-A Long; CPE,60 ± 18 nM
same,EC50,"RSV-A Long; CPE (ATPlite), read-out: EC50",52 ± 12 nM
same,cross resistance of GS-5806- and AZ-27-resistant strains,[3],no signs of cross resistance
same,concentration at 12 h after the last dose,[4],1480 nM
same,EC50,"[5]; HEp-2, recombinant RSV N K107N",52 ± 6 nM
same,EC50,"[5]; HEp-2, recombinant RSV N K136R",125 ± 20 nM
same,EC50,"[5]; HEp-2, recombinant RSV N L139I",326 ± 83 nM
same,EC50,"[5]; HEp-2, recombinant RSV N M109I",70 ± 26 nM
same,EC50,"[5]; HEp-2, recombinant RSV N M109K",1220 nM
same,EC50,"[5]; HEp-2, recombinant RSV N M109K mutant",~1200 nM
same,EC50,"[5]; HEp-2, recombinant RSV N M109T",244 ± 61 nM
same,EC50,"[5]; HEp-2, recombinant RSV N N105D",60 ± 44 nM
same,EC50,"[5]; HEp-2, recombinant RSV N S134T",99 ± 26 nM
same,EC50,"[5]; HEp-2, recombinant RSV N V90A",46 ± 29 nM
same,EC50,"[5]; HEp-2, recombinant RSV Wild-type (WT), HEp2",45 ± 21 nM
same,reduction in peak viral load,RSV A2; 100 mg/kg BID oral gavage,~ 4 log10
same,effect on RSV viral load vs vehicle control,"RSV A2; 100 mg/kg BID oral gavage, BAL",completely suppressed viral replication
same,viral load reduction in BAL,"RSV A2; 100 mg/kg BID oral gavage, Day 5, to below limit of detection (100 copies/mL)",4 log10
same,viral load reduction in NP swab,"RSV A2; 100 mg/kg BID oral gavage, Day 7, to below limit of detection (100 copies/mL)",4 log10
same,viral rebound after cessation of treatment,"RSV A2; BAL fluid, above the limit of detection",no viral rebound was observed
